From patent US11098010B2 (priority 2017, dated 2021)

These compounds were tested on HBV rcDNA in HepDE19 cells (assay: HepDE19 assay with bDNA quantitation of HBV rcDNA). Conditions: HepDE19 cells, inhibition of rcDNA formation, 7 day incubation, top concentration 25 μM; read-out: DE-19 bDNA EC50.
Type: cell-based, hepatitis B virus (HBV)
Protocol: HepDE19 Assay with bDNA Quantitation of HBV rcDNA:
HepDE19 cell culture system is a HepG2 (human hepatocarcinoma) derived cell line that supports HBV DNA replication and cccDNA formation in a tetracycline (Tet)-regulated manner and produces HBV rcDNA and a detectable reporter molecule dependent on the production and maintenance of cccDNA (Guo, et al., 2007, J. Virol. 81:12472-12484).
HepDE19 (50,000 cells/well) were plated in 96-well collagen-coated tissue-culture treated microtiter plates in DMEM/F12 medium supplemented with 10% fetal bovine serum, 1% penicillin-streptomycin and 1 μg/mL tetracycline and incubated in a humidified incubator at 37° C. and 5% CO2 overnight. Next day, the cells were switched to fresh medium without tetracycline and incubated for 4 hours at 37° C. and 5% CO2. The cells were treated with fresh Tet-free medium with compounds at concentrations starting at 25 μM and a serial, ½ log, 8-point, titration series in duplicate. The final DMSO concentration in the assay was 0.5%. The plates were incubated for 7 days in a humidified incubator at 37° C. and 5% CO2. Following a 7 day-incubation, the level of rcDNA present in the inhibitor-treated wells was measured using a Quantigene 2.0 bDNA assay kit (Affymetrix, Santa Clara, Calif.) with HBV specific custom probe set and manufacturers instructions. Concurrently, the effect of compounds on cell viability was assessed using replicate plates, plated at a density of 5,000 cells/well and incubated for 4 days, to determine the ATP content as a measure of cell viability using the cell-titer glo reagent (CTG; Promega Corporation, Madison, Wis.) as per manufacturer's instructions. The plates were read using a Victor luminescence plate reader (PerkinElmer Model 1420 Multilabel counter) and the relative luminescence units (RLU) data generated from each well was calculated as % inhibition of the untreated control wells and analyzed using XL-Fit module in Microsoft Excel to determine EC50 and EC90 (bDNA) and CC50 (CTG) values using a 4-parameter curve fitting algorithm.
Representative compounds of the invention were tested for their abilities to inhibit formation of relaxed circular DNA (rcDNA) in a HepDE19 assay, as described elsewhere herein.

**Q.** With `O=C(NC1CSc2c(C(=O)Nc3ccc(F)c(F)c3)cccc21)OCc1ccccn1` (centres unmarked) [Compound 27, O-pyridin-2-ylmethyl, N-(7-((3,4-difluorophenyl)carbamoyl)-2,3-dihydrobenzo[b]thiophen-3-yl) carbamate] as the compound, how does the EC50 read?
**A.** 1.4 µM

**Q.** For `O=C(NC1CSc2c(C(=O)Nc3ccc(F)c(Cl)c3)cccc21)OCc1ccccn1` (centres unmarked) [Compound 28, O-pyridin-2-ylmethyl, N-(7-((3-chloro-4-fluorophenyl)carbamoyl)-2,3-dihydrobenzo[b]thiophen-3-yl) carbamate], which EC50 is on record?
**A.** 0.76 µM

**Q.** Which EC50 does the source give for `COC(=O)NC1CSc2c(C(=O)Nc3ccc(F)c(Cl)c3)cccc21` (centres unmarked) [Compound 29, O-methyl, N-(7-((3-chloro-4-fluorophenyl)carbamoyl)-2,3-dihydrobenzo[b]thiophen-3-yl) carbamate] here?
**A.** 1.6 µM

Same assay, conditions: Hepatitis B virus, HepDE19, 168 h, HepDE19 cells, inhibition of rcDNA formation, 7 day incubation, top concentration 25 μM; read-out: DE-19 bDNA EC50

**Q.** `O=C(NC1CCc2c(C(=O)Nc3ccc(F)c(Cl)c3)cncc21)OCc1ccccn1` (single isomer, unassigned) [Compound 271, O-Pyridin-2-ylmethyl, N-(4-((3-chloro-4-fluorophenyl)carbamoyl)-6,7-dihydro-5H-cyclopenta[c]pyridin-7-yl)carbamate] was tested. Which EC50 did it give?
**A.** 5.7 µM

**Q.** `COC(=O)N[C@H]1CCc2c(C(=O)Nc3ccc(F)c(F)c3)cccc21` [Compound 1, O-methyl, N—(S)-(4-((3,4-difluorophenyl)carbamoyl)-2,3-dihydro-1H-inden-1-yl) carbamate] was tested. Which EC50 did it give?
**A.** 0.64 µM

**Q.** Which EC50 does the source give for `CNC(=O)N[C@H]1CCc2c(C(=O)Nc3ccc(F)c(F)c3)cccc21` [Compound 2, (S)—N-(3,4-Difluorophenyl)-1-(3-methylureido)-2,3-dihydro-1H-indene-4-carboxamide] here?
**A.** 1.4 µM

**Q.** How did the EC50 turn out when `O=C(N[C@H]1CCc2c(C(=O)Nc3ccc(F)c(F)c3)cccc21)OCc1ccccn1` [Compound 3, O-Pyridin-2-ylmethyl, N—(S)-(4-((3,4-difluorophenyl)carbamoyl)-2,3-dihydro-1H-inden-1-yl) carbamate] was run?
**A.** 0.5 µM

**Q.** `CC(C)(C)OC(=O)N[C@H]1CCc2c(C(=O)Nc3ccc(F)c(Cl)c3)ccc(F)c21` [Compound 10, O-tert-Butyl, N—(S)-(4-((3-chloro-4-fluorophenyl)carbamoyl)-7-fluoro-2,3-dihydro-1H-inden-1-yl) carbamate] was tested. Which EC50 did it give?
**A.** 0.8 µM

**Q.** `N[C@H]1CCc2c(C(=O)Nc3ccc(F)c(Cl)c3)ccc(F)c21` [Compound 13, (S)-1-Amino-N-(3-chloro-4-fluorophenyl)-7-fluoro-2,3-dihydro-1H-indene-4-carboxamide] was tested. Which EC50 did it give?
**A.** > 25 µM

**Q.** Which EC50 does the source give for `COC(=O)N[C@H]1CCc2c(C(=O)Nc3ccc(F)c(Cl)c3)ccc(F)c21` [Compound 19, O-Methyl, N—(S)-(4-((3-chloro-4-fluorophenyl)carbamoyl)-7-fluoro-2,3-dihydro-1H-inden-1-yl) carbamate] here?
**A.** 0.17 µM

**Q.** `Cc1cc(NC(=O)c2cccc3c2CC[C@@H]3NC(=O)OCc2ccccn2)ccc1F` [Compound 23, O-Pyridin-2-ylmethyl, N—(S)-(4-((4-fluoro-3-methylphenyl)carbamoyl)-2,3-dihydro-1H-inden-1-yl) carbamate] was tested. Which EC50 did it give?
**A.** 0.45 µM

Same assay, conditions: Hepatitis B virus, HepDE19, 168 h, read-out: DE-19 bDNA EC50 (μM), HepDE19 cells, inhibition of rcDNA formation, 7 day incubation, top concentration 25 μM

**Q.** With `O=C1CC[C@H](COC(=O)N[C@H]2CCc3c(C(=O)Nc4ccc(F)c(Cl)c4)ccc(F)c32)N1` [Compound 9, O—((R)-5-Oxopyrrolidin-2-yl)methyl, N—((S)-4-((3-chloro-4-fluorophenyl)carbamoyl)-7-fluoro-2,3-dihydro-1H-inden-1-yl) carbamate] as the compound, how does the EC50 read?
**A.** 0.58 µM

**Q.** `COC(=O)N[C@H]1CCc2c(C(=O)Nc3ccc(F)c(C)c3)ccc(F)c21` [Compound 11, O-Methyl, N—(S)-(7-fluoro-4-((4-fluoro-3-methylphenyl)carbamoyl)-2,3-dihydro-1H-inden-1-yl) carbamate] was tested. Which EC50 did it give?
**A.** 0.21 µM

**Q.** Which EC50 does the source give for `CNC(=O)N[C@H]1CCc2c(C(=O)Nc3ccc(F)c(C)c3)ccc(F)c21` [Compound 12, (S)-7-Fluoro-N-(4-fluoro-3-methylphenyl)-1-(3-methylureido)-2,3-dihydro-1H-indene-4-carboxamide] here?
**A.** 0.38 µM

**Q.** How did the EC50 turn out when `O=C(N[C@H]1CCc2c(C(=O)Nc3ccc(F)c(Cl)c3)ccc(F)c21)OCCN1CCCC1=O` [Compound 14, O-2-(2-Oxopyrrolidin-1-yl)ethyl, N—(S)-(4-((3-chloro-4-fluorophenyl)carbamoyl)-7-fluoro-2,3-dihydro-1H-inden-1-yl) carbamate] was run?
**A.** 0.45 µM

**Q.** `O=C(N[C@H]1CCc2c(C(=O)Nc3ccc(F)c(Cl)c3)cccc21)OCc1ccccn1` [Compound 17] was tested. Which EC50 did it give?
**A.** 0.17 µM

**Q.** Which EC50 does the source give for `O=C1CC[C@@H](COC(=O)N[C@H]2CCc3c(C(=O)Nc4ccc(F)c(Cl)c4)ccc(F)c32)N1` [Compound 18, O—((S)-5-Oxopyrrolidin-2-yl)methyl, N—((S)-4-((3-chloro-4-fluorophenyl)carbamoyl)-7-fluoro-2,3-dihydro-1H-inden-1-yl) carbamate] here?
**A.** 0.34 µM

**Q.** With `CNC(=O)N[C@H]1CCc2c(C(=O)Nc3ccc(F)c(Cl)c3)ccc(F)c21` [Compound 20, (S)—N-(3-Chloro-4-fluorophenyl)-7-fluoro-1-(3-methylureido)-2,3-dihydro-1H-indene-4-carboxamide] as the compound, how does the EC50 read?
**A.** 0.32 µM

**Q.** With `O=C1CC[C@H](COC(=O)N[C@H]2CCc3c(C(=O)Nc4ccc(F)c(Cl)c4)cccc32)N1` [Compound 21, O—((R)-5-Oxopyrrolidin-2-yl)methyl, N—((S)-4-((3-chloro-4-fluorophenyl)carbamoyl)-2,3-dihydro-1H-inden-1-yl) carbamate] as the compound, how does the EC50 read?
**A.** 0.58 µM

**Q.** `O=C1CC[C@@H](COC(=O)N[C@H]2CCc3c(C(=O)Nc4ccc(F)c(Cl)c4)cccc32)N1` [Compound 22, O—((S)-5-Oxopyrrolidin-2-yl)methyl, N—((S)-4-((3-chloro-4-fluorophenyl)carbamoyl)-2,3-dihydro-1H-inden-1-yl) carbamate] was tested. Which EC50 did it give?
**A.** 0.44 µM

**Q.** How did the EC50 turn out when `Cc1cc(NC(=O)c2cccc3c2CC[C@@H]3NC(=O)OC[C@H]2CCC(=O)N2)ccc1F` [Compound 24, O—((R)-5-Oxopyrrolidin-2-yl)methyl, N—((S)-4-((4-fluoro-3-methylphenyl)carbamoyl)-2,3-dihydro-1H-inden-1-yl) carbamate] was run?
**A.** 1.5 µM

**Q.** `Cc1cc(NC(=O)c2cccc3c2CC[C@@H]3NC(=O)OC[C@@H]2CCC(=O)N2)ccc1F` [Compound 25, O—((S)-5-Oxopyrrolidin-2-yl)methyl, N—((S)-4-((4-fluoro-3-methylphenyl)carbamoyl)-2,3-dihydro-1H-inden-1-yl) carbamate] was tested. Which EC50 did it give?
**A.** 1.1 µM

**Q.** Which EC50 does the source give for `O=C(N[C@H]1CCc2c(C(=O)Nc3ccc(F)c(Cl)c3)ccc(F)c21)OCC(=O)N1CCCC1` [Compound 26, O-2-Oxo-2-(pyrrolidin-1-yl)ethyl, N—(S)-(4-((3-chloro-4-fluorophenyl)carbamoyl)-7-fluoro-2,3-dihydro-1H-inden-1-yl) carbamate] here?
**A.** 0.44 µM

Same assay, conditions: read-out: DE-19 bDNA EC50; HepDE19 cells, inhibition of rcDNA formation, 7 day incubation, top concentration 25 μM

**Q.** `COC(=O)NC1COc2c(C(=O)Nc3ccc(F)c(F)c3)cccc21` (centres unmarked) [Compound 4, O-Methyl, N-(7-((3,4-difluorophenyl)carbamoyl)-2,3-dihydrobenzofuran-3-yl) carbamate] was tested. Which EC50 did it give?
**A.** 5.3 µM

**Q.** How did the EC50 turn out when `COC(=O)NC1COc2c(C(=O)Nc3ccc(F)c(F)c3)cccc21` (centres unmarked) [Compound 5, O-Methyl, N-(7-((3,4-difluorophenyl)carbamoyl)-2,3-dihydrobenzofuran-3-yl) carbamate] was run?
**A.** 14 µM

**Q.** With `COC(=O)NC1COc2c(C(=O)Nc3ccc(F)c(F)c3)cccc21` (centres unmarked) [Compound 6, O-Methyl, N-(7-((3,4-difluorophenyl)carbamoyl)-2,3-dihydrobenzofuran-3-yl) carbamate] as the compound, how does the EC50 read?
**A.** 1.3 µM
